Laboratory results as given in US11691980B2, “Liphagal analog and multi-targeted kinase inhibitor containing liphagal or analog thereof” (TOHOKU UNIVERSITY, priority 2017, dated 2023).

Assays:
Assay in all cases: mobility shift assay
Format in all cases: biochemical
COT_Cascade = target: T1, COT_Cascade (Homo sapiens, UniProt P41279)
T1 construct: purchased Carna Biosciences

MLK2_Cascade = target: T2, MLK2_Cascade (Homo sapiens, UniProt Q02779)
T2 construct: purchased Carna Biosciences

MAPKAPK3 = target: T3, MAPKAPK3 (Homo sapiens, UniProt Q16644)
T3 construct: purchased Carna Biosciences

ARG = target: T4, ARG (Homo sapiens, UniProt P42684)
T4 construct: purchased Carna Biosciences

BRAF(V600E)_Cascade = target: T5, BRAF(V600E)_Cascade (Homo sapiens, UniProt P15056, V600E)
T5 construct: purchased Carna Biosciences

QIK = target: T6, QIK (Homo sapiens, UniProt Q9H0K1)
T6 construct: purchased Carna Biosciences

DAPK1 = target: T7, DAPK1 (Homo sapiens, UniProt P53355)
T7 construct: purchased Carna Biosciences

LCK = target: T8, LCK (Homo sapiens, UniProt P06239)
T8 construct: purchased Carna Biosciences

KDR = target: T9, KDR (Homo sapiens, UniProt P35968)
T9 construct: purchased Carna Biosciences

RSK3 = target: T10, RSK3 (Homo sapiens, UniProt Q15349)
T10 construct: purchased Carna Biosciences

HGK = target: T11, HGK (Homo sapiens, UniProt O95819)
T11 construct: purchased Carna Biosciences

SLK = target: T12, SLK (Homo sapiens, UniProt Q9H2G2)
T12 construct: purchased Carna Biosciences

PKCγ = target: T13, PKCγ (Homo sapiens, UniProt P05129)
T13 construct: purchased Carna Biosciences

MRCKα = target: T14, MRCKα (Homo sapiens, UniProt Q5VT25)
T14 construct: purchased Carna Biosciences

BRSK1 = target: T15, BRSK1 (Homo sapiens, UniProt Q8TDC3)
T15 construct: purchased Carna Biosciences

PDHK4 = target: T16, PDHK4 (Homo sapiens, UniProt Q16654)
T16 construct: purchased Carna Biosciences

MARK1 = target: T17, MARK1 (Homo sapiens, UniProt Q9P0L2)
T17 construct: purchased Carna Biosciences

PKACα = target: T18, PKACα (Homo sapiens, UniProt P17612)
T18 construct: purchased Carna Biosciences

CaMK4 = target: T19, CaMK4 (Homo sapiens, UniProt Q16566)
T19 construct: purchased Carna Biosciences

PGK = target: T20, PGK (Homo sapiens, UniProt Q13976)
T20 construct: purchased Carna Biosciences

p38B = target: T21, p38B (Homo sapiens, UniProt Q15759)
T21 construct: purchased Carna Biosciences

RET(M918T) = target: T22, RET(M918T) (Homo sapiens, UniProt P07949, M918T)
T22 construct: purchased Carna Biosciences

HPK4 = target: T23, HPK4 (Homo sapiens, UniProt Q8NE63)
T23 construct: purchased Carna Biosciences

MAP4K2 = target: T24, MAP4K2 (Homo sapiens, UniProt Q12851)
T24 construct: purchased Carna Biosciences

EPHA4 = target: T25, EPHA4 (Homo sapiens, UniProt P54764)
T25 construct: purchased Carna Biosciences

TIE2 = target: T26, TIE2 (Homo sapiens, UniProt Q02763)
T26 construct: purchased Carna Biosciences

LYNa = target: T27, LYNa (Homo sapiens, UniProt P07948)
T27 construct: purchased Carna Biosciences

CGK2 = target: T28, CGK2 (Homo sapiens, UniProt Q13237)
T28 construct: purchased Carna Biosciences

KIT(D816Y) = target: T29, KIT(D816Y) (Homo sapiens, UniProt P10721, D816Y)
T29 construct: purchased Carna Biosciences

CLK3 = target: T30, CLK3 (Homo sapiens, UniProt P49761)
T30 construct: purchased Carna Biosciences

MGC42105 = target: T31, MGC42105 (Homo sapiens, UniProt Q8IY84)
T31 construct: purchased Carna Biosciences

IKKβ = target: T32, IKKβ (Homo sapiens, UniProt O14920)
T32 construct: purchased Carna Biosciences

ABL(E265K) = conditions: 10 μM
CaMK1α = target: T33, CaMK1α (Homo sapiens, UniProt Q14012)
T33 construct: purchased Carna Biosciences

SRM = target: T34, SRM (Homo sapiens, UniProt Q9H3Y6)
T34 construct: purchased Carna Biosciences

FRK = target: T35, FRK (Homo sapiens, UniProt P42685)
T35 construct: purchased Carna Biosciences

IRR = target: T36, IRR (Homo sapiens, UniProt P14616)
T36 construct: purchased Carna Biosciences

CK1ε = target: T37, CK1ε (Homo sapiens, UniProt P49674)
T37 construct: purchased Carna Biosciences

HPK2 = target: T38, HPK2 (Homo sapiens, UniProt Q9H2X6)
T38 construct: purchased Carna Biosciences

CK2α1/β = target: T39, CK2α1/β (Homo sapiens, UniProt P68400)
T39 construct: purchased Carna Biosciences

MAP3K2_Cascade = target: T40, MAP3K2_Cascade (Homo sapiens, UniProt Q9Y2U5)
T40 construct: purchased Carna Biosciences

ALK(F1174L) = target: T41, ALK(F1174L) (Homo sapiens, UniProt Q9UM73, F1174L)
T41 construct: purchased Carna Biosciences

T24 sequence (Q12851 whole entry): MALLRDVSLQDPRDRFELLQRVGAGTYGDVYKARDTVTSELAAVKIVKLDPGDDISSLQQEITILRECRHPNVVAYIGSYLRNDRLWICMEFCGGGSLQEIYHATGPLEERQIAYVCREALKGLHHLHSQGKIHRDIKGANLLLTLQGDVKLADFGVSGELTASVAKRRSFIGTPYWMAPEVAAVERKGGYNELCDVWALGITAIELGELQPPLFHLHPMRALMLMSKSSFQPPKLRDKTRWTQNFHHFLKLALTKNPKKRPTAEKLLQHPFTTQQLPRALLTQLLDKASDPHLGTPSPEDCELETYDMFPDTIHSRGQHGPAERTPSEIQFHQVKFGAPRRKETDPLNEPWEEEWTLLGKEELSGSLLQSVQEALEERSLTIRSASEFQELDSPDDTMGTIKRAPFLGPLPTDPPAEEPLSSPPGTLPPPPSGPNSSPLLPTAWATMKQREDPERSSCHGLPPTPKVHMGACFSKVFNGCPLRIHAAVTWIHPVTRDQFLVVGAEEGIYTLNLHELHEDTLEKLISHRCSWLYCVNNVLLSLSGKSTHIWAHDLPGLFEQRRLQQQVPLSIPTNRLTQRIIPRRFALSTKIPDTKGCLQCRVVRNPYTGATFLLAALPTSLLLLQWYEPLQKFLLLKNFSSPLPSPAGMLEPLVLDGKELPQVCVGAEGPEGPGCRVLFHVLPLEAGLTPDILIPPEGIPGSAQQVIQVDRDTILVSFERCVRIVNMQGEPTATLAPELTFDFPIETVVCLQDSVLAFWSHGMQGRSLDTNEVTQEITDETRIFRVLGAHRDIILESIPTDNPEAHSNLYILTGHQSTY
T39 sequence (P68400 whole entry): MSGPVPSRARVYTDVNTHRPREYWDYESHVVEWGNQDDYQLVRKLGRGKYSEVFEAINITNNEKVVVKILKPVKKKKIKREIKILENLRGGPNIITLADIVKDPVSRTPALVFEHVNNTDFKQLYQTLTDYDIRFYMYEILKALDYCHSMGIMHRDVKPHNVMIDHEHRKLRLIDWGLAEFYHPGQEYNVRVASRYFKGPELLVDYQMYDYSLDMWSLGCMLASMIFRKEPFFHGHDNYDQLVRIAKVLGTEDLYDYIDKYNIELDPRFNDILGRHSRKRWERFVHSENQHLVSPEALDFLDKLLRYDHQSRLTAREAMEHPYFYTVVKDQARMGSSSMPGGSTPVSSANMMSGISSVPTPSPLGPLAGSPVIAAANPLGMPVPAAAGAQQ
T39 sequence (P67870 whole entry partner): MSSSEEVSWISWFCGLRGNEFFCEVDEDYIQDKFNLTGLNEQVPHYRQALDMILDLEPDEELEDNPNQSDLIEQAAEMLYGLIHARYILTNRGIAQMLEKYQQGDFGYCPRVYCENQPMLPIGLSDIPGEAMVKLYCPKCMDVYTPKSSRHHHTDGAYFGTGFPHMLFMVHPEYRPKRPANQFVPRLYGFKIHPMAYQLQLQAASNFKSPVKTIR
T12 sequence (Q9H2G2 whole entry): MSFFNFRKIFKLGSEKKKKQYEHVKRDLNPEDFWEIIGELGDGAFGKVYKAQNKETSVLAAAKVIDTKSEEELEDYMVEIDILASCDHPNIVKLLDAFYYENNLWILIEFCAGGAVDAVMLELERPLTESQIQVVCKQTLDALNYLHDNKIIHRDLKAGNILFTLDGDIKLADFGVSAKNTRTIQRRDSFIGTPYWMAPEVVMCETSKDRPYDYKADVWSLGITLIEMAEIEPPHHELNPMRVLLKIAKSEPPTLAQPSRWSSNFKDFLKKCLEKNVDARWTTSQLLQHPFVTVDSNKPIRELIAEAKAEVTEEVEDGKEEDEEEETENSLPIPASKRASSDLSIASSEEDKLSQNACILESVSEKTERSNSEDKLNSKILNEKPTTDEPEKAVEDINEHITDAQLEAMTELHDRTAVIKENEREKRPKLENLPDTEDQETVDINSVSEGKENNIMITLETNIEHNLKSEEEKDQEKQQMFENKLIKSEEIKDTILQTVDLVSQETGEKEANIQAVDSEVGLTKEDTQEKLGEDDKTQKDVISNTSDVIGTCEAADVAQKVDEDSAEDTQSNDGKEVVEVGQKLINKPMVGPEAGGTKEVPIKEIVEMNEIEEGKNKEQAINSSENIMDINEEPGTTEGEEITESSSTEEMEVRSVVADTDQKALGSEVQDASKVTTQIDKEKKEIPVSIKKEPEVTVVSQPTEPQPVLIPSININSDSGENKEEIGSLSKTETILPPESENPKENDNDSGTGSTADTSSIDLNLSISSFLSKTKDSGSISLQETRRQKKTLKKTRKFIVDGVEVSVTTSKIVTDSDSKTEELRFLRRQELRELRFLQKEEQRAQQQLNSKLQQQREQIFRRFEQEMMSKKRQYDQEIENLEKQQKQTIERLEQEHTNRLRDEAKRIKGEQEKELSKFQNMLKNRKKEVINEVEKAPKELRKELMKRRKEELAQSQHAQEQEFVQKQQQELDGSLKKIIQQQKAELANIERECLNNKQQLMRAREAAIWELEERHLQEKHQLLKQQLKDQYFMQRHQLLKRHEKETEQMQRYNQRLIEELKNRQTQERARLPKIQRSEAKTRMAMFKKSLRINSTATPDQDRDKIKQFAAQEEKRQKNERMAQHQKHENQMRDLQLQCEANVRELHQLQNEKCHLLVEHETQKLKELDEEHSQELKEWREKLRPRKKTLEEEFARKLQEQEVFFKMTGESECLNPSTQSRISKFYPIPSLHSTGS
T36 sequence (P14616 27-1297): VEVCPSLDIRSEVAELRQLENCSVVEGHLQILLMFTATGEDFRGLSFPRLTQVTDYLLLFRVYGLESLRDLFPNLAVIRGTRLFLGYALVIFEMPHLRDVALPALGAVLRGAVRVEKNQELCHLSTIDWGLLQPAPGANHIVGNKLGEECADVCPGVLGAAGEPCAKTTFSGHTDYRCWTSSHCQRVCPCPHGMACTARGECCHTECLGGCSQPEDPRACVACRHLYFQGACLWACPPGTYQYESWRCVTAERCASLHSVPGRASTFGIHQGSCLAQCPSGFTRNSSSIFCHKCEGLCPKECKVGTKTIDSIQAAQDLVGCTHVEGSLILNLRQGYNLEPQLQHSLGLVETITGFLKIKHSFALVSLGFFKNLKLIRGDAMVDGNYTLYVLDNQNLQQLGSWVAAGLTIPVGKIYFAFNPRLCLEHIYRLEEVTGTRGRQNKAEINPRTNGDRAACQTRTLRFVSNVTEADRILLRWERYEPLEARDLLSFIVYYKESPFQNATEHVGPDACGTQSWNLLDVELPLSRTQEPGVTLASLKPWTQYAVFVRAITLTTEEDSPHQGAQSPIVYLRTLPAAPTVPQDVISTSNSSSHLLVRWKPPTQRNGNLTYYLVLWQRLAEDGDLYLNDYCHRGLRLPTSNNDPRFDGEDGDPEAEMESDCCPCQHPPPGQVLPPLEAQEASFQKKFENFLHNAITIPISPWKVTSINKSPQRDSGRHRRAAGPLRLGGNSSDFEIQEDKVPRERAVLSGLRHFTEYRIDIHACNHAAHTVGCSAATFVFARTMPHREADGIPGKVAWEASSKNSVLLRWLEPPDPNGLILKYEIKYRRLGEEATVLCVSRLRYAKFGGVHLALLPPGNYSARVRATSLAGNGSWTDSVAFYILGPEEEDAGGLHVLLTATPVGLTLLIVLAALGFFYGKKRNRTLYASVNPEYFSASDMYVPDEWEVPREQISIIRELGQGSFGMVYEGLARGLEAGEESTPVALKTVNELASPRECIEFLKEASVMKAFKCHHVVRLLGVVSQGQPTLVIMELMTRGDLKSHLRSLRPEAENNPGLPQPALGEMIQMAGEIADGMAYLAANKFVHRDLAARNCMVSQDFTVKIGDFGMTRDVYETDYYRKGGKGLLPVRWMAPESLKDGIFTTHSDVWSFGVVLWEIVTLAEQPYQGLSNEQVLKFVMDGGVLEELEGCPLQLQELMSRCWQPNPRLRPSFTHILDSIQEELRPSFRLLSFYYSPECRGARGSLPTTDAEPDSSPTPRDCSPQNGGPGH
T10 sequence (Q15349 whole entry): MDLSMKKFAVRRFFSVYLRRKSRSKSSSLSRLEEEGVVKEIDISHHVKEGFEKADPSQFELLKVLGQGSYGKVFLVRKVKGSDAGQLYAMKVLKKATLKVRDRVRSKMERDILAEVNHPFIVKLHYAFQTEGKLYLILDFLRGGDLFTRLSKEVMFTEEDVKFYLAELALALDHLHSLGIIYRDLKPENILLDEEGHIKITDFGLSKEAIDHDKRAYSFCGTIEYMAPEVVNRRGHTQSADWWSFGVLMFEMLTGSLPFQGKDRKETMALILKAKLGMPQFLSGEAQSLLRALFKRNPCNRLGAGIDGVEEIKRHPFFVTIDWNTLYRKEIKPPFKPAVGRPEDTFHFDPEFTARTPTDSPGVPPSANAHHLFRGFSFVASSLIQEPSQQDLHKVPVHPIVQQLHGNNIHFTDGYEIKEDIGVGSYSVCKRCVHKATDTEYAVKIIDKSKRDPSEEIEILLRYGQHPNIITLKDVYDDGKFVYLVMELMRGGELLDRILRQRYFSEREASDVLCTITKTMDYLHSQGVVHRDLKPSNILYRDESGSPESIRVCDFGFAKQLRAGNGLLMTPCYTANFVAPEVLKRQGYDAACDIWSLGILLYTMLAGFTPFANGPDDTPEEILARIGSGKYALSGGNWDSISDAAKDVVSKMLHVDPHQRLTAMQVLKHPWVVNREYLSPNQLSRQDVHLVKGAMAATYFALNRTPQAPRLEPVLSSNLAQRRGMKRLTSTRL
T21 sequence (Q15759 whole entry): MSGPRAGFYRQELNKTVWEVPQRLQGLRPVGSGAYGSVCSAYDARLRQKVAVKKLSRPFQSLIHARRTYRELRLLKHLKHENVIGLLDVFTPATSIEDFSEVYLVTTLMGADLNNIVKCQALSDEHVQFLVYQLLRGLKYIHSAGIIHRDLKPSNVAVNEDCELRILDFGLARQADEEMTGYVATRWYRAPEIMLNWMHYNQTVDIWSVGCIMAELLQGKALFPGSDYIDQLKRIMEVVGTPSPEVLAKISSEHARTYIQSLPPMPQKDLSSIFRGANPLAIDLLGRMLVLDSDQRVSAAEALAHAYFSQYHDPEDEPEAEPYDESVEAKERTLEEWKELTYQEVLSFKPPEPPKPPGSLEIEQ

Structure (SMILES): C[C@@H]1CC[C@H]2C(C)(C)CCC[C@]2(C)c2c1oc1c(C=O)c(O)c(O)cc21 [LG-1, liphagal]
- inhibition at 10 µM (COT_Cascade): 14.7%
- inhibition at 10 µM (MLK2_Cascade): 8.3%
- inhibition at 10 µM (MAPKAPK3): 4.8%
- inhibition at 10 µM (ARG): 1.4%
- inhibition at 10 µM (BRAF(V600E)_Cascade): 19.5%
- inhibition at 10 µM (QIK): 2.7%
- inhibition at 10 µM (DAPK1): 1.8%
- inhibition at 10 µM (LCK): 11%
- inhibition at 10 µM (KDR): -1.1%
- inhibition at 10 µM (RSK3): 8.1%
- inhibition at 10 µM (HGK): 1.2%
- inhibition at 10 µM (SLK): 10.5%
- inhibition at 10 µM (PKCγ): -1.9%
- inhibition at 10 µM (MRCKα): 16%
- inhibition at 10 µM (BRSK1): 9.2%
- inhibition at 10 µM (PDHK4): 7.4%
- inhibition at 10 µM (MARK1): -3.5%
- inhibition at 10 µM (PKACα): 2.3%
- inhibition at 10 µM (CaMK4): 51.4%
- inhibition at 10 µM (PGK): 6.1%
- inhibition at 10 µM (p38B): 9.1%
- inhibition at 10 µM (RET(M918T)): 5.9%
- inhibition at 10 µM (HPK4): 18.2%
- inhibition at 10 µM (MAP4K2): 5%
- inhibition at 10 µM (EPHA4): 2%
- inhibition at 10 µM (TIE2): 11.7%
- inhibition at 10 µM (LYNa): 7.6%
- inhibition at 10 µM (CGK2): 7.3%
- inhibition at 10 µM (KIT(D816Y)): 6.2%
- inhibition at 10 µM (CLK3): 5.7%
- inhibition at 10 µM (MGC42105): -1.7%
- inhibition at 10 µM (IKKβ): 2.4%
- % Inhibition (ABL(E265K)): −3.3%
- inhibition at 10 µM (CaMK1α): 25.7%
- inhibition at 10 µM (SRM): 19%
- inhibition at 10 µM (FRK): 1.4%
- inhibition at 10 µM (IRR): 23.1%
- inhibition at 10 µM (CK1ε): 37.7%
- inhibition at 10 µM (HPK2): 27%
- inhibition at 10 µM (CK2α1/β): -0.9%
- inhibition at 10 µM (MAP3K2_Cascade): 16.8%
- inhibition at 10 µM (ALK(F1174L)): -1.8%
